For 34 molecules, IC50 results are on record in BindingDB's records for doi:10.1021/jm960799i (Dupont Pharmaceuticals, 1997).

Structures are written as SMILES. Several values for one entry are separate records, joined by “and”; a condition that tells them apart may be missing. Equal values may be shown once. Where a name gives a salt, the structure may show the parent alone.

The target in this experiment is Integrin alpha-IIb/beta-3 (Homo sapiens, UniProt P08514+P05106). Kind of experiment: In vitro inhibition of ADP-induced platelet aggregation in human platelet rich plasma (hPRP).
Sequence of Integrin alpha-IIb/beta-3 (P05106 27-788 limits assumed): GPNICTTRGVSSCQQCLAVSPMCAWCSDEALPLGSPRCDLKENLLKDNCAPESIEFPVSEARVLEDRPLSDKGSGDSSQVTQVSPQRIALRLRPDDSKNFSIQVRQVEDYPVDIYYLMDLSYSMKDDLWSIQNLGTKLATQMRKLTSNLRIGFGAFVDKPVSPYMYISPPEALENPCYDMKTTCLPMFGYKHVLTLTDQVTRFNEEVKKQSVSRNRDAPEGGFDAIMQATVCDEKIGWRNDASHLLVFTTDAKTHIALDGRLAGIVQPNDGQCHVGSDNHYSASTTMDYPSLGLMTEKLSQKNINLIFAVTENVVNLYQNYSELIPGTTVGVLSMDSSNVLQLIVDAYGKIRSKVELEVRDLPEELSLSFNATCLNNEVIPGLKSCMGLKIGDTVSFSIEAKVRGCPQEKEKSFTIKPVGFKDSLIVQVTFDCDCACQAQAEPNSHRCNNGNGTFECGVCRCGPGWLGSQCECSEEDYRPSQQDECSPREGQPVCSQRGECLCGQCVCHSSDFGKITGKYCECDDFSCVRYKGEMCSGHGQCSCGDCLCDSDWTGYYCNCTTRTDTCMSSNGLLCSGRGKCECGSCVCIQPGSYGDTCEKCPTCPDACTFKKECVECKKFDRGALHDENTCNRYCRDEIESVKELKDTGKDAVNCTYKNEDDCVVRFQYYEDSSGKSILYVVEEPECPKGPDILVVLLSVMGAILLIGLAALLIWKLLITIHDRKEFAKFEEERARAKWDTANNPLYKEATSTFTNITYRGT
Sequence of Integrin alpha-IIb/beta-3 (P08514 32-887 limits assumed): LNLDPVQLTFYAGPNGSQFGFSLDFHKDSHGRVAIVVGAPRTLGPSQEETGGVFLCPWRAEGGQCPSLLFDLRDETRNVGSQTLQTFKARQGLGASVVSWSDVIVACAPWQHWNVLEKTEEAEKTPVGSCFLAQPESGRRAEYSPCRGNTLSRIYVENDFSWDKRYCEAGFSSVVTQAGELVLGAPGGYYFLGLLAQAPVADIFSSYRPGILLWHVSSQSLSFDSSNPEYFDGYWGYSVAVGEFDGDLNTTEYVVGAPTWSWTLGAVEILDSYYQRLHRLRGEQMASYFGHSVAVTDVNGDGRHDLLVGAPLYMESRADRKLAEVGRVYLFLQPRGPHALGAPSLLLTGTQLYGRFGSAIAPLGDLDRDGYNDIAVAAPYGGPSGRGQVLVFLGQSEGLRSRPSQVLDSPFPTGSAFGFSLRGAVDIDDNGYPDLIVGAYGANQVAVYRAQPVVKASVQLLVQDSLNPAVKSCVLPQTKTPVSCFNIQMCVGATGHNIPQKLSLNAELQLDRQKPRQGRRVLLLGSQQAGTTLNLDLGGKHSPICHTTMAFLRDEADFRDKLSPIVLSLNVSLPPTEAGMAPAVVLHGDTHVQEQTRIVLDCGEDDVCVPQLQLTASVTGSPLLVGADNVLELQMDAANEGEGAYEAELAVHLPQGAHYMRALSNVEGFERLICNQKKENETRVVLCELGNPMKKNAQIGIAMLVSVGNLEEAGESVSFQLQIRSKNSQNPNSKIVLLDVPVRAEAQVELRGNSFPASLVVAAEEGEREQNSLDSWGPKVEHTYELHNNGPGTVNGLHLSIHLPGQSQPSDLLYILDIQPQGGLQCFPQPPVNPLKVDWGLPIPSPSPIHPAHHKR
Sequence of Integrin alpha-IIb/beta-3 (P08514 891-1039 limits assumed): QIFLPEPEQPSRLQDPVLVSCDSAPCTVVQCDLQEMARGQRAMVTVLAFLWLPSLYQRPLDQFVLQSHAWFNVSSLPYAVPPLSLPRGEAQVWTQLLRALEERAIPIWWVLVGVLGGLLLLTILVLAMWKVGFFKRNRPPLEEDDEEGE
By IC50 is commonly meant the concentration that inhibits the measured activity by half. The molecule `N=C(N)c1ccc(C2=NO[C@@H](CC(=O)NCCC(=O)O)C2)cc1` returned an IC50 of 60 nM.

Molecule `N=C(N)c1ccc(C2=NOC(CC(=O)N[C@@H](CC(=O)O)C(=O)N3CCc4ccccc4C3)C2)cc1` (some centres undefined) came in with an IC50 of 170 nM.

As for `COC(=O)CC(CN(C)C)NC(=O)CC1CC(c2ccc(C(=N)N)cc2)=NO1` (centres undefined) [3-{2-[3-(4-Carbamimidoyl-phenyl)-4,5-dihydro-isoxazol-5-yl]-acetylamino}-4-dimethylamino-butyric acid methyl ester; TFA], half-maximal inhibition (IC50) was put at 2700 nM.

For the molecule `N=C(N)c1ccc(C2=NOC(CC(=O)NC(CC(=O)O)CC(=O)O)C2)cc1` (centres undefined) [3-{2-[3-(4-Carbamimidoyl-phenyl)-4,5-dihydro-isoxazol-5-yl]-acetylamino}-pentanedioic acid; TFA], half-maximal inhibition (IC50) was put at 210 nM.

`CCCCOC(=O)N[C@H](CNC(=O)C[C@H]1CC(c2ccc(C(=N)N)cc2)=NO1)C(=O)O` [(R)-2-Butoxycarbonylamino-3-{2-[(R)-3-(4-carbamimidoyl-phenyl)-4,5-dihydro-isoxazol-5-yl]-acetylamino}-propionic acid; hydrochloride]: the IC50 turned out to be 27 nM.

For the molecule `CCCCOC(=O)N[C@H](CNC(=O)C[C@@H]1CC(c2ccc(C(=N)N)cc2)=NO1)C(=O)O` [(R)-2-Butoxycarbonylamino-3-{2-[(S)-3-(4-carbamimidoyl-phenyl)-4,5-dihydro-isoxazol-5-yl]-acetylamino}-propionic acid; hydrochloride], the midpoint of inhibition, the IC50, lay at 100 nM.

On to `COC(=O)C[C@H](CN(C)C)NC(=O)CC1CC(c2ccc(C(=N)N)cc2)=NO1` (stereo partly drawn) [(R)-3-{2-[3-(4-Carbamimidoyl-phenyl)-4,5-dihydro-isoxazol-5-yl]-acetylamino}-4-dimethylamino-butyric acid methyl ester; TFA], for which the IC50 was 7000 nM.

As to `N=C(N)c1ccc(C2=NOC(CC(=O)N[C@@H](CC(=O)O)Cc3ccccc3)C2)cc1` (stereo partly drawn) [(R)-3-{2-[3-(4-Carbamimidoyl-phenyl)-4,5-dihydro-isoxazol-5-yl]-acetylamino}-4-phenyl-butyric acid; TFA], the midpoint of inhibition, the IC50, lay at 78 nM.

In turn, `COC(=O)C[C@H](CN1CCCC1)NC(=O)CC1CC(c2ccc(C(=N)N)cc2)=NO1` (stereo partly drawn) [(R)-3-{2-[3-(4-Carbamimidoyl-phenyl)-4,5-dihydro-isoxazol-5-yl]-acetylamino}-4-pyrrolidin-1-yl-butyric acid methyl ester; TFA] had an IC50 of 3300 nM.

In turn, `COC(=O)C[C@@H](CC(C)C)NC(=O)CC1CC(c2ccc(C(=N)N)cc2)=NO1` (stereo partly drawn) [(R)-3-{2-[3-(4-Carbamimidoyl-phenyl)-4,5-dihydro-isoxazol-5-yl]-acetylamino}-5-methyl-hexanoic acid methyl ester; TFA] returned a half-maximal inhibitory concentration (IC50) of 50 nM.

In the case of `N=C(N)c1ccc(C2=NOC(CC(=O)N[C@H](CCc3ccccn3)CC(=O)O)C2)cc1` (stereo partly drawn) [(R)-3-{2-[3-(4-Carbamimidoyl-phenyl)-4,5-dihydro-isoxazol-5-yl]-acetylamino}-5-pyridin-2-yl-pentanoic acid; TFA], 180 nM corresponded to half-maximal inhibition (IC50).

For the molecule `N=C(N)c1ccc(C2=NOC(CC(=O)N[C@H](CCc3cccnc3)CC(=O)O)C2)cc1` (stereo partly drawn) [(R)-3-{2-[3-(4-Carbamimidoyl-phenyl)-4,5-dihydro-isoxazol-5-yl]-acetylamino}-5-pyridin-3-yl-pentanoic acid; TFA], the IC50 was determined as 360 nM.

With `N=C(N)c1ccc(C2=NOC(CC(=O)N[C@H](CCc3ccncc3)CC(=O)O)C2)cc1` (stereo partly drawn) [(R)-3-{2-[3-(4-Carbamimidoyl-phenyl)-4,5-dihydro-isoxazol-5-yl]-acetylamino}-5-pyridin-4-yl-pentanoic acid; TFA], half-maximal inhibition (IC50) required 500 nM.

Consider `CC[C@H](CC(=O)O)NC(=O)C[C@H]1CC(c2ccc(C(=N)N)cc2)=NO1` [(R)-3-{2-[(R)-3-(4-Carbamimidoyl-phenyl)-4,5-dihydro-isoxazol-5-yl]-acetylamino}-pentanoic acid; TFA], for which the 50% inhibitory concentration (IC50) worked out at 54 nM.

As to `N=C(N)c1ccc(C2=NOC(CC(=O)NC[C@H](NC(=O)NCc3ccccc3)C(=O)O)C2)cc1` (stereo partly drawn) [(S)-2-(3-Benzyl-ureido)-3-{2-[3-(4-carbamimidoyl-phenyl)-4,5-dihydro-isoxazol-5-yl]-acetylamino}-propionic acid; TFA], the concentration for half-maximal inhibition (IC50) was found to be 67 nM.

For the molecule `N=C(N)c1ccc(C2=NOC(CC(=O)NC[C@H](NC(=O)OCc3ccc(Br)cc3)C(=O)O)C2)cc1` (stereo partly drawn) [(S)-2-(4-Bromo-benzyloxycarbonylamino)-3-{2-[3-(4-carbamimidoyl-phenyl)-4,5-dihydro-isoxazol-5-yl]-acetylamino}-propionic acid; TFA], the IC50 came out at 44 nM.

`CN(C[C@@H](C(=O)O)N(C)C(=O)OCc1ccccc1)C(=O)CC1CC(c2ccc(C(=N)N)cc2)=NO1` (stereo partly drawn) [(S)-2-(Benzyloxycarbonyl-methyl-amino)-3-({2-[3-(4-carbamimidoyl-phenyl)-4,5-dihydro-isoxazol-5-yl]-acetyl}-methyl-amino)-propionic acid; TFA] returned an IC50 of 570 nM.

In the case of `CCCCS(=O)(=O)N[C@@H](CNC(=O)CC1CC(c2ccc(C(=N)N)cc2)=NO1)C(=O)O` (stereo partly drawn) [(S)-2-(Butane-1-sulfonylamino)-3-{2-[3-(4-carbamimidoyl-phenyl)-4,5-dihydro-isoxazol-5-yl]-acetylamino}-propionic acid; TFA], 31 nM corresponded to half-maximal inhibition (IC50).

In turn, `N=C(N)c1ccc(C2=NOC(CC(=O)NC[C@H](N)C(=O)O)C2)cc1` (stereo partly drawn) [(S)-2-Amino-3-{2-[3-(4-carbamimidoyl-phenyl)-4,5-dihydro-isoxazol-5-yl]-acetylamino}-propionic acid; TFA] came in with an IC50 of 91 nM.

`COC(=O)[C@H](CN(C)C(=O)CC1CC(c2ccc(C(=N)N)cc2)=NO1)NC(=O)OCc1ccccc1` (stereo partly drawn) [(S)-2-Benzyloxycarbonylamino-3-({2-[3-(4-carbamimidoyl-phenyl)-4,5-dihydro-isoxazol-5-yl]-acetyl}-methyl-amino)-propionic acid methyl ester; TFA] showed an IC50 of 160 nM.

`O=C(CC1CC(CCC2CCNCC2)=NO1)NC[C@H](NC(=O)OCc1ccccc1)C(=O)O` (stereo partly drawn) [(S)-2-Benzyloxycarbonylamino-3-{2-[3-(2-piperidin-4-yl-ethyl)-4,5-dihydro-isoxazol-5-yl]-acetylamino}-propionic acid; TFA]: half-maximal inhibition (IC50) required 210 nM.

In the case of `C=CCCOC(=O)N[C@@H](CNC(=O)CC1CC(c2ccc(C(=N)N)cc2)=NO1)C(=O)O` (stereo partly drawn) [(S)-2-But-3-enyloxycarbonylamino-3-{2-[3-(4-carbamimidoyl-phenyl)-4,5-dihydro-isoxazol-5-yl]-acetylamino}-propionic acid; TFA], the midpoint of inhibition, the IC50, lay at 44 nM.

Molecule `CCCCOC(=O)N[C@@H](CN(C)C(=O)CC1CC(c2ccc(C(=N)N)cc2)=NO1)C(=O)O` (stereo partly drawn) [(S)-2-Butoxycarbonylamino-3-({2-[3-(4-carbamimidoyl-phenyl)-4,5-dihydro-isoxazol-5-yl]-acetyl}-methyl-amino)-propionic acid; TFA] showed an IC50 of 200 nM.

For `CCCCOC(=O)N[C@@H](CNC(=O)CC1CC(C2CCNCC2)=NO1)C(=O)O` (stereo partly drawn) [(S)-2-Butoxycarbonylamino-3-[2-(3-piperidin-4-yl-4,5-dihydro-isoxazol-5-yl)-acetylamino]-propionic acid; TFA], the IC50 was determined as 6300 nM.

For the molecule `CCCCOC(=O)N[C@@H](CNC(=O)CC1CC(CC2CCNCC2)=NO1)C(=O)O` (stereo partly drawn) [(S)-2-Butoxycarbonylamino-3-[2-(3-piperidin-4-ylmethyl-4,5-dihydro-isoxazol-5-yl)-acetylamino]-propionic acid; TFA], the midpoint of inhibition, the IC50, lay at 10000 nM.

In turn, `CCCCOC(=O)N[C@@H](CNC(=O)CC1CC(CCC2CCNCC2)=NO1)C(=O)O` (stereo partly drawn) [(S)-2-Butoxycarbonylamino-3-{2-[3-(2-piperidin-4-yl-ethyl)-4,5-dihydro-isoxazol-5-yl]-acetylamino}-propionic acid; TFA] gave a concentration for half-maximal inhibition (IC50) of 180 nM.

In the case of `CCCCOC(=O)N[C@@H](CNC(=O)CC1CC(CCCC2CCNCC2)=NO1)C(=O)O` (stereo partly drawn) [(S)-2-Butoxycarbonylamino-3-{2-[3-(3-piperidin-4-yl-propyl)-4,5-dihydro-isoxazol-5-yl]-acetylamino}-propionic acid; TFA], the IC50 came to 180 nM.

`CCCCOC(=O)N[C@@H](CNC(=O)CC1CC(c2ccc(C(=N)N)cc2F)=NO1)C(=O)O` (stereo partly drawn) [(S)-2-Butoxycarbonylamino-3-{2-[3-(4-carbamimidoyl-2-fluoro-phenyl)-4,5-dihydro-isoxazol-5-yl]-acetylamino}-propionic acid]: inhibition was half-maximal at 73 nM (IC50).

As to `CCCCOC(=O)N[C@@H](CNC(=O)CC1CC(c2ccc(C(=N)N)cc2)=NO1)C(=O)OC` (stereo partly drawn) [(S)-2-Butoxycarbonylamino-3-{2-[3-(4-carbamimidoyl-phenyl)-4,5-dihydro-isoxazol-5-yl]-acetylamino}-propionic acid methyl ester; hydrochloride], the IC50 was 30 nM.

Take `CCCCOC(=O)N[C@@H](CNC(=O)CC1CC(c2ccc(C(=N)N)cc2)=NO1)C(=O)O` (stereo partly drawn) [(S)-2-Butoxycarbonylamino-3-{2-[3-(4-carbamimidoyl-phenyl)-4,5-dihydro-isoxazol-5-yl]-acetylamino}-propionic acid; TFA]: the IC50 is 75 nM and 42 nM.

`CCCCOC(=O)N[C@@H](CNC(=O)CC1CC(c2ccc(N=C(N)N)cc2)=NO1)C(=O)O` (stereo partly drawn) [(S)-2-Butoxycarbonylamino-3-{2-[3-(4-guanidino-phenyl)-4,5-dihydro-isoxazol-5-yl]-acetylamino}-propionic acid] returned a concentration for half-maximal inhibition (IC50) of 88 nM.

Molecule `N=C(N)c1ccc(C2=NOC(CC(=O)NC[C@H](NC(=O)c3ccc(-c4ccccc4)cc3)C(=O)O)C2)cc1` (stereo partly drawn) [(S)-2-[(Biphenyl-4-carbonyl)-amino]-3-{2-[3-(4-carbamimidoyl-phenyl)-4,5-dihydro-isoxazol-5-yl]-acetylamino}-propionic acid; TFA] showed a half-inhibitory concentration (IC50) of 67 nM.

`N=C(N)c1ccc(C2=NOC(CC(=O)NC[C@H](NC(=O)OCc3ccccc3Cl)C(=O)O)C2)cc1` (stereo partly drawn) [(S)-3-{2-[3-(4-Carbamimidoyl-phenyl)-4,5-dihydro-isoxazol-5-yl]-acetylamino}-2-(2-chloro-benzyloxycarbonylamino)-propionic acid; TFA] gave an IC50 of 32 nM.

With `N=C(N)c1ccc(C2=NOC(CC(=O)NC[C@H](NC(=O)OCCC3CCCC3)C(=O)O)C2)cc1` (stereo partly drawn) [(S)-3-{2-[3-(4-Carbamimidoyl-phenyl)-4,5-dihydro-isoxazol-5-yl]-acetylamino}-2-(2-cyclopentyl-ethoxycarbonylamino)-propionic acid; TFA], the half-maximal inhibitory concentration (IC50) came to 32 nM.
